Columns and labels:
Format in all cases: in vivo
[1] = system: goosegrass (Eleusine indica); experiment: Test B pre-/postemergence plant response
Method in brief: (§1)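 Plants treated either at seeding (loam/sand soil) or postemergence at 2 to 18 cm height, using a surfactant-containing non-phytotoxic solvent formulation. Evaluation was visual after 13 to 15 days, 0 to 100 scale relative to controls.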

[2] = system: wheat (Triticum aestivum); experiment: Test B pre-/postemergence plant response
Method in brief: as §1

[3] = system: cocklebur (Xanthium strumarium); experiment: Test B pre-/postemergence plant response; settings: for Cocklebur plant response rating: scale 0 to 100
Method in brief: as §1

kochia (Kochia scoparia) = experiment: Test B pre-/postemergence plant response; settings: Postemergence; for Plant response rating, Kochia: scale 0 (no effect) to 100 (complete control); for Kochia plant response rating: 250 g ai/ha, scale 0 to 100
Method in brief: as §1

[4] = system: velvetleaf (Abutilon theophrasti); experiment: Test B pre-/postemergence plant response
Method in brief: as §1

soybean (Glycine max) = experiment: Test B pre-/postemergence plant response
Method in brief: as §1

wild oat (Avena fatua) = experiment: Test B pre-/postemergence plant response
Method in brief: as §1

[5] = system: johnsongrass (Sorghum halepense); experiment: Test B pre-/postemergence plant response
Method in brief: as §1

[6] = system: ragweed (common ragweed, Ambrosia elatior); experiment: Test B pre-/postemergence plant response
Method in brief: as §1

[7] = system: pigweed (Amaranthus retroflexus); experiment: Test B pre-/postemergence plant response
Method in brief: as §1

[8] = system: canarygrass (Phalaris minor); experiment: Test B postemergence plant response; settings: Postemergence; for Canarygrass plant response rating: 250 g ai/ha, scale 0 to 100
Method in brief: (§2)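 Plants at the 1- to 4-leaf stage (2 to 18 cm tall), grown in pots of peat moss/vermiculite medium with wetting agent and starter nutrients, received postemergence applications of test chemicals. After 13 to 15 days in a greenhouse, injury was rated visually against untreated controls on a 0 (no effect) to 100 (complete control) scale.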

[9] = system: chickweed (Stellaria media); experiment: Test B postemergence plant response; settings: Postemergence; for Chickweed plant response rating: 250 g ai/ha, scale 0 to 100
Method in brief: as §2

[10] = system: windgrass (Apera spica-venti); experiment: Test B postemergence plant response; settings: Postemergence, scale 0 (no effect) to 100 (complete control)
Method in brief: as §2

[11] = 250 g ai/ha, Preemergence, 0 to 100 scale
[12] = Postemergence, 62 g ai/ha, scale 0 (no effect) to 100 (complete control), 13 to 15 days
[13] = Postemergence, 125 g ai/ha, visual rating after 13 to 15 days, scale 0 (no effect) to 100 (complete control)
[14] = Postemergence, 250 g ai/ha, scale 0 to 100
[15] = Preemergence, 31 g ai/ha, scale 0 to 100 (0 no effect, 100 complete control)
[16] = Preemergence, 125 g ai/ha, 0 to 100 scale
[17] = Postemergence, 31 g ai/ha, scale 0 to 100 (0 no effect, 100 complete control)
[18] = Preemergence, 62 g ai/ha, scale 0 to 100 (0 no effect, 100 complete control)
[19] = 125 g ai/ha, visual rating after 13 to 15 days
[20] = 31 g ai/ha, scale 0 to 100 (0 no effect, 100 complete control)
[21] = 62 g ai/ha, scale 0 (no effect) to 100 (complete control), 13 to 15 days
[22] = 125 g ai/ha, visual rating after 13 to 15 days, scale 0 (no effect) to 100 (complete control)

In the case of CCCCc1ncc(C(=O)C2=C(O)CCCC2=O)c(=O)n1-c1ccccc1 [Compound 42], the “Plant response rating, Goosegrass” value [1, 11] is reported as 100, the “Plant response rating, Goosegrass” value [1, 12] is reported as 85 and the “Plant response rating, Goosegrass” value [1, 13] is reported as 90. The “Goosegrass plant response rating” value [1, 14] was 95, the “Plant response rating, Goosegrass” value [1, 15] was 50 and the “Goosegrass plant response rating” value [1, 16] was 100. The “Plant response rating, Wheat” value [2, 11] was 0, the “Plant response rating, Wheat” value [2, 12] was 0 and the “Plant response rating, Wheat” value [2, 13] was 5. For the same compound, the “Plant response rating, Wheat” value [2, 15] was 0, the “Wheat plant response rating” value [2, 16] was 0 and the “Plant response rating, Cocklebur” value [3, 17] was 0. The “Plant response rating, Cocklebur” value [3, 12] was 45, the “Plant response rating, Cocklebur” value [3, 13] was 85 and the “Cocklebur plant response rating” value ([3]; Postemergence, 250 g ai/ha) was 95. For the same compound, the “Plant response rating, Cocklebur” value [3, 15] was 0, the “Plant response rating, Cocklebur” value [3, 18] was 0 and the “Plant response rating, Kochia” value (kochia (Kochia scoparia); 62 g ai/ha, 13 to 15 days) was 100. For the same compound, the “Plant response rating, Kochia” value (kochia (Kochia scoparia); [19]) was 100, the “Kochia plant response rating” value (kochia (Kochia scoparia)) was 100 and the “Plant response rating, Velvetleaf” value [4, 11] was 90. For the same compound, the “Plant response rating, Velvetleaf” value [4, 12] was 80, the “Plant response rating, Velvetleaf” value [4, 13] was 95 and the “Plant response rating, Velvetleaf” value [4, 15] was 75. The “Velvetleaf plant response rating” value [4, 16] was 85, the “Plant response rating, Soybean” value (soybean (Glycine max); [11]) was 0 and the “Plant response rating, Soybean” value (soybean (Glycine max); [12]) was 90. For the same compound, the “Plant response rating, Soybean” value (soybean (Glycine max); [13]) was 95, the “Plant response rating, Soybean” value (soybean (Glycine max); [15]) was 0 and the “Soybean plant response rating” value (soybean (Glycine max); [16]) was 0. The “Plant response rating, Oat, Wild” value (wild oat (Avena fatua); [11]) was 0, the “Plant response rating, Oat, Wild” value (wild oat (Avena fatua); [12]) was 10 and the “Plant response rating, Oat, Wild” value (wild oat (Avena fatua); [13]) was 10. The “Plant response rating, Oat, Wild” value (wild oat (Avena fatua); [15]) was 0, the “Oat, Wild plant response rating” value (wild oat (Avena fatua); [16]) was 0 and the “Plant response rating, Johnsongrass” value [5, 11] was 65. For the same compound, the “Plant response rating, Johnsongrass” value [5, 12] was 0, the “Plant response rating, Johnsongrass” value [5, 13] was 40 and the “Johnsongrass plant response rating” value [5, 14] was 65. The “Plant response rating, Johnsongrass” value [5, 15] was 0, the “Plant response rating, Johnsongrass” value [5, 18] was 0 and the “Johnsongrass plant response rating” value [5, 16] was 10. For the same compound, the “Plant response rating, Ragweed” value [6, 11] was 80, the “Plant response rating, Ragweed” value [6, 12] was 75 and the “Plant response rating, Ragweed” value [6, 13] was 85. The “Plant response rating, Ragweed” value [6, 15] was 0, the “Ragweed plant response rating” value [6, 16] was 25 and the “Plant response rating, Pigweed” value [7, 11] was 100. For the same compound, the “Plant response rating, Pigweed” value [7, 12] was 95, the “Plant response rating, Pigweed” value [7, 13] was 100 and the “Plant response rating, Pigweed” value [7, 15] was 100. The “Pigweed plant response rating” value [7, 16] was 100, the “Plant response rating, Canarygrass” value [8, 20] was 0 and the “Plant response rating, Canarygrass” value [8, 21] was 0. For the same compound, the “Plant response rating, Canarygrass” value [8, 22] was 0, the “Canarygrass plant response rating” value [8] was 0 and the “Plant response rating, Chickweed” value [9, 20] was 60. For the same compound, the “Plant response rating, Chickweed” value [9, 21] was 70, the “Plant response rating, Chickweed” value [9, 22] was 80 and the “Chickweed plant response rating” value [9] was 95. The “Plant response rating, Windgrass” value ([10]; 62 g ai/ha, 13 to 15 days) was 60 and the “Plant response rating, Windgrass” value [10, 19] was 70.

For Cc1ccc(F)cc1-n1c(-c2ccccc2)ncc(C(=O)C2=C(O)CCCC2=O)c1=O [Compound 44], the “Plant response rating, Goosegrass” value [1, 11] was 100, the “Plant response rating, Goosegrass” value [1, 12] was 90 and the “Plant response rating, Goosegrass” value [1, 13] was 90. The “Goosegrass plant response rating” value [1, 14] was 95, the “Plant response rating, Goosegrass” value [1, 15] was 90 and the “Goosegrass plant response rating” value [1, 16] was 100. The “Plant response rating, Wheat” value [2, 11] was 0, the “Plant response rating, Wheat” value [2, 12] was 10 and the “Plant response rating, Wheat” value [2, 13] was 30. The “Plant response rating, Wheat” value [2, 15] was 0, the “Wheat plant response rating” value [2, 16] was 0 and the “Plant response rating, Cocklebur” value [3, 11] was 45. The “Plant response rating, Cocklebur” value [3, 17] was 80, the “Plant response rating, Cocklebur” value [3, 12] was 80 and the “Plant response rating, Cocklebur” value [3, 13] was 90. The “Cocklebur plant response rating” value ([3]; Postemergence, 250 g ai/ha) was 98, the “Plant response rating, Kochia” value (kochia (Kochia scoparia); 62 g ai/ha, 13 to 15 days) was 75 and the “Plant response rating, Kochia” value (kochia (Kochia scoparia); [19]) was 75. The “Kochia plant response rating” value (kochia (Kochia scoparia)) was 95, the “Plant response rating, Velvetleaf” value [4, 11] was 100 and the “Plant response rating, Velvetleaf” value [4, 12] was 98. The “Plant response rating, Velvetleaf” value [4, 13] was 100, the “Plant response rating, Velvetleaf” value [4, 15] was 75 and the “Velvetleaf plant response rating” value [4, 16] was 100. For the same compound, the “Plant response rating, Soybean” value (soybean (Glycine max); [11]) was 0, the “Plant response rating, Soybean” value (soybean (Glycine max); [12]) was 95 and the “Plant response rating, Soybean” value (soybean (Glycine max); [13]) was 95. For the same compound, the “Plant response rating, Soybean” value (soybean (Glycine max); [15]) was 0, the “Soybean plant response rating” value (soybean (Glycine max); [16]) was 0 and the “Plant response rating, Oat, Wild” value (wild oat (Avena fatua); [11]) was 30. The “Plant response rating, Oat, Wild” value (wild oat (Avena fatua); [12]) was 80, the “Plant response rating, Oat, Wild” value (wild oat (Avena fatua); [13]) was 80 and the “Plant response rating, Oat, Wild” value (wild oat (Avena fatua); [15]) was 0. The “Oat, Wild plant response rating” value (wild oat (Avena fatua); [16]) was 5, the “Plant response rating, Johnsongrass” value [5, 11] was 95 and the “Plant response rating, Johnsongrass” value [5, 12] was 70. The “Plant response rating, Johnsongrass” value [5, 13] was 90, the “Johnsongrass plant response rating” value [5, 14] was 95 and the “Plant response rating, Johnsongrass” value [5, 15] was 10. For the same compound, the “Plant response rating, Johnsongrass” value [5, 18] was 75, the “Johnsongrass plant response rating” value [5, 16] was 90 and the “Plant response rating, Ragweed” value [6, 11] was 95. For the same compound, the “Plant response rating, Ragweed” value [6, 12] was 95, the “Plant response rating, Ragweed” value [6, 13] was 95 and the “Plant response rating, Ragweed” value [6, 15] was 20. For the same compound, the “Ragweed plant response rating” value [6, 16] was 95, the “Plant response rating, Pigweed” value [7, 11] was 100 and the “Plant response rating, Pigweed” value [7, 12] was 95. The “Plant response rating, Pigweed” value [7, 13] was 98, the “Plant response rating, Pigweed” value [7, 15] was 98 and the “Pigweed plant response rating” value [7, 16] was 100. For the same compound, the “Plant response rating, Canarygrass” value [8, 20] was 20, the “Plant response rating, Canarygrass” value [8, 21] was 20 and the “Plant response rating, Canarygrass” value [8, 22] was 30. The “Canarygrass plant response rating” value [8] was 40, the “Plant response rating, Chickweed” value [9, 20] was 90 and the “Plant response rating, Chickweed” value [9, 21] was 95. The “Plant response rating, Chickweed” value [9, 22] was 98, the “Chickweed plant response rating” value [9] was 100 and the “Plant response rating, Windgrass” value ([10]; 62 g ai/ha, 13 to 15 days) was 70. For the same compound, the “Plant response rating, Windgrass” value [10, 19] was 85.

— US8952024B2, “Herbicidal pyrimidone derivatives” (E I du Pont de Nemours and Company, priority 2009, dated 2015)
